Data as given in patent US11207291B2, “Antimicrobial compositions comprising cannabinoids and methods of using the same” (Graphium Biosciences, Inc., priority 2017, dated 2021).
In brackets after ≈: the same amount, converted by molar mass. Read-outs that look alike come from different tables or passages of the source.

Legend:
[1] = tested on: Staphylococcus aureus (MSSA); test: Broth microdilution MIC, aerobic bacteria (Example 1); type: cell-based; conditions: Staphylococcus aureus, ATCC 29213 / MSSA, isolate MMX 100 (ATCC 29213), read-out: MIC
[2] = tested on: Staphylococcus aureus (MRSA); test: microbe, parasite or virus in culture; type: cell-based; conditions: Staphylococcus aureus, MRSA
[3] = tested on: Enterococcus faecalis (VSE); test: Broth microdilution MIC, aerobic bacteria (Example 1); type: cell-based; conditions: Enterococcus faecalis, ATCC29212, isolate MMX 101 (ATCC 29212), read-out: MIC
[4] = tested on: Enterococcus faecalis (VRE); test: microbe, parasite or virus in culture; type: cell-based; conditions: Enterococcus faecalis, VRE
Streptococcus pyogenes [5] = test: Broth microdilution MIC, aerobic bacteria (Example 1); type: cell-based; conditions: Streptococcus pyogenes, isolate MMX 404, read-out: MIC
[6] = tested on: Klebsiella pneumoniae (KPC-2); type: cell-based; conditions: Example 1 summary of findings; Klebsiella
Clostridium difficile = test: Broth microdilution MIC, anaerobic bacteria (Example 1); type: cell-based; conditions: Clostridioides difficile
Lactobacillus jensenii = test: as above; type: cell-based; conditions: Lactobacillus jensenii
Candida parapsilosis [7] = test: Broth microdilution MIC, yeast and fungi (Example 1); type: cell-based; conditions: Lodderomyces parapsilosis, ATCC22019, Example 1, isolate MMX 2323 (ATCC 22019)
[8] = Compound precipitation in uninoculated solubility controls (Example 1); type: physicochemical; design: key to precipitation observed (type): NA: not applicable (no precipitation observed); TRP: trace precipitate; DCP: distinct precipitate
Protocol: Plates were stacked 3-4 high, covered with a lid on the top plate, placed in plastic bags, and incubated at 35° C. for approximately 16 to 20 hr (aerobes), 20 to 24 hr (Streptococcus), and 24 and 48 hr (fungi). Anaerobe plates were stacked, covered with a lid on the top plate, placed in a BD GasPak EZ Anaerobe Container System and incubated at 35° C. for 48 hr. Following incubation, the microplates were removed from the incubator and viewed from the bottom using a plate viewer. […] The MIC was read and recorded as the lowest concentration of drug that inhibited visible growth of the organism.

[9] = tested on: Staphylococcus aureus (MSSA); test: Broth microdilution MIC, aerobic bacteria (Example 4); type: cell-based; conditions: ATCC 29213 / MSSA
[10] = tested on: Enterococcus faecalis (VSE); test: as above; type: cell-based; conditions: ATCC29212
[11] = tested on: Enterococcus faecalis (VRE); test: microbe, parasite or virus in culture; type: cell-based
Streptococcus pyogenes [12] = test: Broth microdilution MIC, aerobic bacteria (Example 4); type: cell-based
Acinetobacter baumannii = test: as above; type: cell-based
Bifidobacterium bifidum = test: Broth microdilution MIC, anaerobic bacteria (Example 4); type: cell-based; conditions: isolate MMX 3965
Bacteroides fragilis = test: as above; type: cell-based; conditions: ATCC25285, isolate MMX 123 (ATCC 25285)
Candida parapsilosis [13] = test: Broth microdilution MIC, fungi (Example 4); type: cell-based; conditions: Lodderomyces parapsilosis
S. aureus ATCC 29213 = test: MIC/MBC testing (Example 5); type: cell-based
S. pneumoniae ATCC 49619 = test: MIC/MBC testing (Example 5); type: cell-based
S. pyogenes MMX 404 = test: MIC/MBC testing (Example 5); type: cell-based
B. bifidum MMX 3965 = test: MIC/MBC testing (Example 5); type: cell-based
gram-positive aerobes = test: Broth microdilution MIC, text summary (Example 1); type: cell-based
gram-negative aerobes = test: Broth microdilution MIC, summary (Example 4); type: cell-based; conditions: tested alone
[14] = tested on: evaluated yeast and fungal isolates; test: Broth microdilution MIC, summary (Example 4); type: cell-based
strains tested = test: MIC/MBC testing, summary (Example 5); type: cell-based
[15] = read-out: inhibits the growth (IC50)
[16] = Staphylococcus aureus, ATCC29213
[17] = ratios of 1-4 are indicative of bactericidal activity
[18] = Streptococcus pneumoniae, ATCC49619
[19] = Bifidobacterium bifidum, MMX3965

Compound: C=C(C)[C@@H]1CCC(C)=C[C@H]1c1c(O)cc(CCCCC)cc1O [CBD, cannabidiol]
- MIC [1]: 2 µg/mL (≈ 6.36 µM)
- MIC [2]: 2 µg/mL (≈ 6.36 µM)
- IC50 [2, 15]: 2 µg/mL (≈ 6.36 µM)
- MIC [3]: 2 µg/mL (≈ 6.36 µM)
- MIC [4]: 2 µg/mL (≈ 6.36 µM)
- IC50 [4, 15]: 2 µg/mL (≈ 6.36 µM)
- MIC (Streptococcus pyogenes [5]): 16 µg/mL (≈ 50.9 µM)
- effect on the gram-negative pathogen [6]: did not have any effect
- MIC (Clostridium difficile; ATCC00057, Example 1, isolate MMX 4381 (ATCC 00057)): 32 µg/mL (≈ 102 µM)
- MIC (Clostridium difficile; Example 1, isolate MMX 8330, read-out: MIC): 32 µg/mL (≈ 102 µM)
- MIC (Clostridium difficile; Example 1, isolate MMX 8333, read-out: MIC): 32 µg/mL (≈ 102 µM)
- IC50 (Clostridium difficile; [15]): 32 µg/mL (≈ 102 µM)
- MIC (Lactobacillus jensenii; Example 1, isolate MMX 4149, read-out: MIC): 64 µg/mL (≈ 204 µM)
- IC50 (Lactobacillus jensenii; Example 1 summary of findings, read-out: inhibits the growth (IC50 values)): 64 µg/mL (≈ 204 µM)
- MIC (Candida parapsilosis [7]; 24 hr, read-out: MIC at 24 hr): > 256 µg/mL
- MIC (Candida parapsilosis [7]; 48 hr, read-out: MIC at 48 hr): > 256 µg/mL
- lowest concentration at which precipitation was observed ([8]; MHB II): 16 µg/mL
- precipitation observed (type) ([8]; MHB II): TRP
- lowest concentration at which precipitation was observed ([8]; MHB II with Blood): 128 µg/mL
- precipitation observed (type) ([8]; MHB II with Blood): TRP
- MIC [9]: 2 µg/mL (≈ 6.36 µM)
- MIC [10]: 2 µg/mL (≈ 6.36 µM)
- MIC [11]: 2 µg/mL (≈ 6.36 µM)
- MIC (Streptococcus pyogenes [12]): 32 µg/mL (≈ 102 µM)
- MIC (Acinetobacter baumannii): > 128 µg/mL
- MIC (Bifidobacterium bifidum): 8 µg/mL (≈ 25.4 µM)
- MIC (Bacteroides fragilis): > 128 µg/mL
- MIC (Candida parapsilosis [13]; ATCC22019, 24 h, read-out: MIC at 24 hr): > 128 µg/mL
- MIC (Candida parapsilosis [13]; ATCC22019, Example 4, 48 hr, isolate MMX 2323 (ATCC 22019), read-out: MIC at 48 hr): > 128 µg/mL
- MBC (S. aureus ATCC 29213; [16]): 2 µg/mL (≈ 6.36 µM)
- MIC (S. aureus ATCC 29213; [16]): 1 µg/mL (≈ 3.18 µM)
- MBC:MIC (S. aureus ATCC 29213; [17]): 2
- MBC (S. pneumoniae ATCC 49619; [18]): 4 µg/mL (≈ 12.7 µM)
- MIC (S. pneumoniae ATCC 49619; [18]): 1 µg/mL (≈ 3.18 µM)
- MBC:MIC (S. pneumoniae ATCC 49619; [17]): 4
- MBC (S. pyogenes MMX 404; Streptococcus pyogenes, MMX404): 32 µg/mL (≈ 102 µM)
- MIC (S. pyogenes MMX 404; Streptococcus pyogenes, MMX404): 32 µg/mL (≈ 102 µM)
- MBC:MIC (S. pyogenes MMX 404; [17]): 1
- MBC (B. bifidum MMX 3965; [19]): 32 µg/mL (≈ 102 µM)
- MIC (B. bifidum MMX 3965; [19]): 16 µg/mL (≈ 50.9 µM)
- MBC:MIC (B. bifidum MMX 3965; [17]): 2
- activity against gram-positive aerobic bacteria (gram-positive aerobes): active
- activity against Gram-negative aerobes (gram-negative aerobes): inactive
- activity against yeast and fungal isolates [14]: Neither THC nor CBD were active
- biocidal activity against the strains tested (strains tested): overall biocidal
